Each structure is given as a SMILES string. Entries after “also recorded” stand apart in the source; their conditions may differ. Where two headings read alike, the source gives them in different places. Some results are limits rather than exact numbers.

The subject of one assay is APP 5′UTR. It is filed as cell-based, human. As for the experimental part: The LDDN library had already yielded small molecules that inhibit mesangial cell proliferation, following three-dimensional pharmacophore modeling and screening. A second Molecular Libraries Screening Centers Network HTS was conducted at the Columbia University Genome Center to generate hits as listed on PUBCHEM (AID: 1285), from which the dose-response assays identified 50 lead APP 5′UTR-directed luciferase reporter inhibitors. […] These were directly measured and found not to inhibit luciferase enzyme activity. […] These thirteen leads were tricyclic aromatic compounds that included two major classes of hits: compounds with a benzimidazole backbone, i.e. APP blockers 2, −7, and −9 (JTR-009) and compounds with a benzothiazole backbone, i.e. APP blockers −8 and −13. The compounds with a benzothiazole backbone were also identified to be similar to PFTα, another benzothiazole, and P53 inhibitor, by showing protection against oxidative injuries in synaptosomes from wild-type mice and preserving presynaptic terminals in cultured hippocampal neurons exposed to etoposide).
APP 5′UTR-Luciferase inhibitor compounds obtained from the preliminary HTS of pIRES-APP-5′UTR transfectants were picked, and the dose-response assays were conducted at 0.1, 1.0, and 5.0 μM (based on the exact molecular weights of the compounds). […] Each hit was added in 5 wells, and this was repeated twice on 2 different days. There was a positive control and negative control column of cells as previously described.
To identify APP 5′UTR-specific translation blockers from LDDN Harvard (see ref [21]) and from the Columbia University Genome center, the inventors then counter-screened against the PrP 5′UTR and shortlisted thirteen potent inhibitors to be further characterized. In FIG. 1D, the listed constructs were employed to conduct these transfection based assays to ensure that the 13 APP specific leads were not also PrP inhibitors. Table 1 lists the IC50 of each of these inhibitors with respect to their dose-responsive capacity to reduce APP 5′UTR-driven luciferase expression relative to their IC50 values against PrP 5′UTR expression.

Assay [1] deals with APP.
Experimental: After cells were exposed to increasing concentrations of the compounds as outlined in each figure legend, cytoplasmic protein lysates were prepared by homogenizing the cells in midRIPA buffer (25 mM Tris pH 7.4, 1% NP40, 0.5% sodium deoxycholate, 15 mM NaCl, protease inhibitors, RNase inhibitor and 10 μM DTT). Western blotting for APP was performed using the N-terminal 22C11 antibody (Millipore, Inc) and the A8717 C-terminal specific APP antibody (Sigma, inc), while αsyn was detected using mouse monoclonal anti-αsyn (BD Transduction Laboratories) and anti-β-actin (Chemicon). The blots were developed using chemiluminescence (PIERCE, Rockford, Ill.) and visualized with a Phosphoimager (BioRad, Hercules, Calif.). The bands were quantified using QuantityOne® software (BioRad).
The test system of assay [2] is APP and amyloid-beta. It is filed as cell-based. The settings on record: Table 2; printed in brackets as max; read-out: APP and amyloid-beta Inhibition (IC50), max.
A further assay deals with α-synuclein (SNCA). Nature of the assay: Western blot of α-synuclein levels in primary mouse neurons. In general terms: A western blot detects proteins with antibodies after separation by electrophoresis.
Assay [3] concerns IRP1 and IRP2 binding to H-ferritin IRE. Put plainly: Biotinylated RNA pulldown assay, IRP1/IRP2 binding to H-ferritin IRE probe. On the set-up: species or system human. The settings on record: same conditions as APP IRE pulldown. As for the experimental part: (§1) Biotinylated RNA oligonucleotides: […] Paramagnetic streptavidin-conjugated Dynabeads (Invitrogen) were washed with ribonucleoprotein immunoprecipitation buffer, added into lysates to bind IRP(1/2)-biotinylated-RNA complexes, and incubated for 1 hour at room temperature. After five washes, the proteins that bound to the beads were analyzed by Western blotting for IRP1, IRP2, and biotin. […] The IREs-bound IRPs were quantified by Quantity One® software (Bio-Rad).

The next assay relates to APP mRNA. It is filed as cell-based, human. As for the experimental part: (§2) qRT-PCR was conducted to measure the capacity of JTR-009 to change steady state levels of […] levels, as was previously described (see Ref [6]). Desferrioxamine treatment was used for a positive control to assess changes to the steady state levels of both APP mRNA and transferrin receptor mRNAs. Primers for β-actin were employed as a control for an mRNA previously shown to be unchanged by desferrioxamine and other inducers. Experiments were carried out on the ABI Prism 7000 sequence detection system (Applied Biosystems). […] The primers to β-actin, TfR1 were designed and ordered from Invitrogen. The APP primer set was purchased from Qiagen and has been benchmarked on several reports for accurate measurement of APP mRNA levels.

The test system of assay [4] is APP. Put plainly: Western blot of APP levels in primary mouse cortical neurons.
Experimental: Primary cortical neurons from wild type mice and from the PAC-Tg(SNCA(wt) human SNCA genomic mice [22] were cultured as outlined by the method of Ray et al., 2009 [23]. The embryonic (E15-18) pups were recovered after sacrificing pregnant females, separated out the brain, and removed the meninges and blood vessels. The cortices were then dissected out and placed them in separate Eppendorf tubes containing 500 uL of HBSS without Ca+^2/Mg^+2 salts supplemented with 1 mM sodium pyruvate and 10 mM HEPES, pH 7.4. On ice, individual cells were isolated by titrating 10 times using a glass pasture pipette with the tip barely fire polished. […]
(§3) After cells were exposed to increasing concentrations of the compounds as outlined in each figure legend, cytoplasmic protein lysates were prepared by homogenizing the cells in midRIPA buffer (25 mM Tris pH 7.4, 1% NP40, 0.5% sodium deoxycholate, 15 mM NaCl, protease inhibitors, RNase inhibitor and 10 μM DTT). Western blotting for APP was performed using the N-terminal 22C11 antibody (Millipore, Inc) and the A8717 C-terminal specific APP antibody (Sigma, inc), while αsyn was detected using mouse monoclonal anti-αsyn (BD Transduction Laboratories) and anti-β-actin (Chemicon). […] The bands were quantified using QuantityOne® software (BioRad).
The subject of the next assay is IRP1 binding to APP IRE. Put plainly: Biotinylated RNA pulldown assay, IRP1 binding to APP IRE probe. Further details: species or system human. As for the experimental part: as §1
The next assay concerns PrP 5′UTR. Nature of the assay: cells. The settings on record: Homo sapiens, SH-SY5Y, read-out: IC50 to reduce 5′UTR driven luciferase expression in pIRES-PrP-5′UTR transfectants.
For a further assay, the system named is TfR mRNA. The class given is cell-based, human. The settings on record: iron chelation, 25 μM, positive control. As for the experimental part:
as §2

The test system of assay [5] is APP and amyloid-beta. The settings on record: Table 2; Refs 27, 33; read-out: APP and amyloid-beta Inhibition (IC50); cited from earlier work.

Experimental for α-synuclein (SNCA): Primary cortical neurons from wild type mice and from the PAC-Tg(SNCA(wt) human SNCA genomic mice [22] were cultured as outlined by the method of Ray et al., 2009 [23]. The embryonic (E15-18) pups were recovered after sacrificing pregnant females, separated out the brain, and removed the meninges and blood vessels. The cortices were then dissected out and placed them in separate Eppendorf tubes containing 500 uL of HBSS without Ca+^2/Mg^+2 salts supplemented with 1 mM sodium pyruvate and 10 mM HEPES, pH 7.4. On ice, individual cells were isolated by titrating 10 times using a glass pasture pipette with the tip barely fire polished. The volume was adjusted to 1.5 mL, by adding 1 mL of HBSS with Ca^+2/Mg^+2 salts+Na. pyruvate+HEPES, restoring the divalent cations by adding HBSS so that the non-dispersed tissue could settle for 5 min, on ice. In the tissue culture laminar hood, the supernatant was transferred into a new 15 mL tube and centrifuged for 1 minute at 900 rpm, 4° C. The pellet was gently re-suspended in 2 mL of HBSS with Ca^+2/Mg^+2 salts+Na pyruvate+HEPES and took an aliquot for counting (2 mL for approx 5 embryos). The cells were then plated at ˜1×10^5 cells/well of a 24 well or 2×10^5/in 12 well plates. Each set of plates was coated with poly D-lysine containing poly L-lysine coverslips for micro immuncytochemical confirmation of neuronal integrity.
as §3

Turning to `COc1cc(SC)ccc1C(=O)Nc1nc2ccccc2[nH]1` [BL-1], the “concentration to inhibit APP 5′UTR conferred translation, times less than strophanthidin” value in the assay on APP 5′UTR (FIG. 8, relative to strophanthidin) was found to be 500 times.
Consider `Cc1ccc2[nH]c(-c3ccc(N)cc3)nc2c1` [JTR-009, 4-(5-methyl-1H-benzimidazol-2yl) aniline], for which the “concentration that limits APP translation” value in the assay with APP [1] is “less than one”. Moreover, the figures for the “reduction of APP in lysate supernatants of RNA pulldown” value in the assay with APP [1] (3 μM) and in the assay with APP [1] (30 μM) were 35% and 70%, respectively. Moreover, the “reduction of APP (densitometry, β-actin standardized)” value in the assay with APP [1] (20 μM, 48 hour treatment) was found to be 50%. The “APP levels, percent of control levels” value in the assay with APP [1] (30 μM, 48 hours, N=5) is on record as 30%. For the same compound, the 50% inhibitory concentration (IC50) was less than 1000 nM with APP [1] (read-out: IC50 for translational inhibition of APP, dose-responsive assays); 10 nM in the assay with APP and amyloid-beta [2]; 4000 nM in the assay on PrP 5′UTR; 400 nM with APP 5′UTR (Homo sapiens, SH-SY5Y, 384-plate assays, inhibition curves, first IC50 line of Table 1, read-out: IC50 to reduce 5′UTR driven luciferase expression in pIRES-APP-5′UTR transfectants); 100 nM in the assay with APP 5′UTR (Homo sapiens, SH-SY5Y, FIG. 4A, dose response, N=4, read-out: IC50 to limit APP 5′UTR-luciferase expression); 100 nM with APP 5′UTR (Homo sapiens, SH-SY5Y, Table 2, read-out: APP 5′UTR Inhibition (IC50)). Also, the IC50 in the assay with APP 5′UTR (Homo sapiens, SH-SY5Y, dose-responsive measurements, range, read-out: IC50 against the APP 5′UTR) was in the range of 1 to 100 nM. The “average pair-wise reduction of SNCA levels (threshold)” value in the assay with α-synuclein (SNCA) (0.001 μM, 48 hours) is 50%. In the assay on α-synuclein (SNCA) (primary mouse neurons, same treatment as APP reduction), the “α-synuclein (SNCA) levels” value is reported as “unchanged; also recorded: no significant changes”. The “IRP1/IRP2 binding to H-ferritin IRE probes” value in assay [3] is on record as “always maintained; also recorded: no inhibitory change”. In addition, in the assay on APP mRNA (0.1 nM to 10 μM drug, N=4), the “APP mRNA levels” value was “unchanged”. Besides, the “increase of APP mRNA levels” value in the assay with APP mRNA (100 μM) is roughly 10%. The “reduction of APP levels” value in the assay with APP [4] (concentrations as low as 10 nM, primary mouse cortical neurons) came to 60%. The “lowest dose that inhibited APP levels” value in the assay with APP [4] (primary mouse E-18 neurons) came out at 1 nM. Also, the “reduction of IRP1 binding to biotinylated APP IRE RNA probes” value in the assay with IRP1 binding to APP IRE (0.3 μM, N=7) is listed as 20%; with IRP1 binding to APP IRE (3 μM, N=7) it was 50%. Also, the “fold reduction of IRP1 binding to the APP IRE” value with IRP1 binding to APP IRE (3 μM, 48 hour exposure) amounted to 2 fold. Also, the “IRP1 binding to biotinylated APP IRE RNA probes” value with IRP1 binding to APP IRE (30 μM, N=7) is given as “completely inhibited”. Also, in the assay on APP 5′UTR (0.1 μM drug, N=4), the “reduction of APP 5′UTR activity” value was “two-fold”. The “fold more potent/effective than posiphen to limit APP 5′UTR driven translation” value in the assay with APP 5′UTR (relative to posiphen, listed as Formula I) was “about 10 fold”.
Take `CC(=O)N(O)CCCCCNC(=O)CCC(=O)N(O)CCCCCNC(=O)CCC(=O)N(O)CCCCCN` [desferrioxamine, reference compound]: the “increase of transferrin receptor mRNA levels” value in the assay with TfR mRNA was determined as 2 fold. Moreover, the “APP mRNA levels” value in the assay on APP mRNA (iron chelation with desferrioxamine) is “unchanged”.
Turning to `CN1CC[C@]2(C)c3cc(OC(=O)Nc4ccccc4)ccc3N(C)[C@H]12` [posiphen, reference compound], the 50% inhibitory concentration (IC50) in the assay on APP and amyloid-beta [5] is 1000 nM; with APP 5′UTR (FIG. 4A, dose response, N=4, read-out: IC50 to limit APP 5′UTR-luciferase expression) it was 5000 nM. In addition, the “increase of APP 5′UTR activity” value in the assay with APP 5′UTR (0.1 μM drug, matched conditions) is given as 15%.

For orientation: IC50 means the concentration needed to halve the response being measured.

Values taken from patent US10022357B2, “Amyloid precursor protein MRNA blockers for treating Down syndrome and Alzheimer's disease” (THE GENERAL HOSPITAL CORPORATION, priority 2013, dated 2018).
